Experiments:
Settings in all cases: human; call rule not given here
[1] = tested on: Hepatotoxicity; test: FDA HLAED, liver enzyme composite activity
[2] = tested on: Hepatotoxicity; test: FDA HLAED, alkaline phosphatase increase
[3] = tested on: Hepatotoxicity; test: FDA HLAED, serum glutamic oxaloacetic transaminase (SGOT) increase
[4] = tested on: Hepatotoxicity; test: FDA HLAED, serum glutamic pyruvic transaminase (SGPT) increase
[5] = tested on: Hepatotoxicity; test: FDA HLAED, lactate dehydrogenase (LDH) increase
[6] = tested on: Hepatotoxicity; test: FDA HLAED, gamma-glutamyl transferase (GGT) increase
For GGT Increase - Index Value in this document: reference of the scale not given here.
For LDH Increase - Index Value in this document: reference of the scale not given here.

Row | SMILES | Composite Activity - Active [1] | Composite Activity - Marginal [1] | Composite Activity - Score [1] | Alkaline Phosphatase Increase - Activity Score [2] | Alkaline Phosphatase Increase - Index Value [2] | Alkaline Phosphatase Increase - Number of Reports [2] | SGOT Increase - Activity Score [3] | SGOT Increase - Index Value [3] | SGOT Increase - Number of Reports [3] | SGPT Increase - Activity Score [4] | SGPT Increase - Index Value [4] | SGPT Increase - Number of Reports [4] | LDH Increase - Activity Score [5] | LDH Increase - Index Value [5] | LDH Increase - Number of Reports [5] | GGT Increase - Activity Score [6] | GGT Increase - Index Value [6] | GGT Increase - Number of Reports [6]
1 | CC(C)(C)NCC(O)COc1cccc2c1CCC(=O)N2 (stereo not drawn) [CARTEOLOL] | 0 | 0 | Inactive | Inactive | 0 | < 4 | Inactive | 0.5 | < 4 | Inactive | 0.5 | < 4 | Inactive | 0.5 | < 4 | Inactive | 0 | < 4
2 | COc1ccccc1OCCNCC(O)COc1cccc2[nH]c3ccccc3c12 (stereo not drawn) [CARVEDILOL] | 0 | 0 | Inactive | Inactive | 0 | < 4 | Inactive | 0 | < 4 | Inactive | 0 | < 4 | Inactive | 0 | < 4 | Inactive | 0 | < 4
3 | N[C@@H](C(=O)N[C@@H]1C(=O)N2C(C(=O)O)=C(Cl)CS[C@H]12)c1ccccc1 [CEFACLOR ANHYDROUS] | 1 | 1 | Inactive | Marginally Active | 3.4 | >= 4 | Active | 6 | >= 4 | Inactive | 2.9 | >= 4 | Inactive | 0.4 | >= 4 | Inactive | 0 | < 4
4 | CC1=C(C(=O)O)N2C(=O)[C@@H](NC(=O)[C@H](N)c3ccc(O)cc3)[C@H]2SC1 [CEFADROXIL] | 0 | 0 | Inactive | Inactive | 0 | < 4 | Inactive | 0 | < 4 | Inactive | 0 | < 4 | Inactive | 0 | < 4 | Inactive | 0 | < 4
5 | Cn1nnnc1SCC1=C(C(=O)[O-])N2C(=O)[C@@H](NC(=O)[C@H](OC=O)c3ccccc3)[C@H]2SC1.[Na+] [CEFAMANDOLE NAFATE] | 0 | 0 | Inactive | Inactive | 0 | < 4 | Inactive | 0 | < 4 | Inactive | 0 | < 4 | Inactive | 0 | < 4 | Inactive | 0 | < 4
6 | Cn1nnnc1SCC1=C(C(=O)O)N2C(=O)[C@@H](NC(=O)[C@H](O)c3ccccc3)[C@H]2SC1 [CEFAMANDOLE] | 0 | 0 | Inactive | Inactive | 0 | < 4 | Inactive | 0 | < 4 | Inactive | 0 | < 4 | Inactive | 0 | < 4 | Inactive | 0 | < 4

— ChEMBL document CHEMBL1697781, “Assessment of the health effects of chemicals in humans: II. Construction of an adverse effects database for QSAR modeling” (Curr Drug Discov Technol, 2004)
